From patent US20090142364A1, “Method for finding novel peptide immunostimulatory adjuvants, compositions and methods of use” (priority 2007, published 2009)
Entries after “also recorded” stand apart in the source; their conditions may differ. Where a SMILES comes first, the peptide text is derived from it.

Columns and labels:
[1] = tested on: E. coli strain TG-1; assay: Survival of Balb/c mice infected with E. coli strain TG-1; type: in vivo, mouse; settings: 2 ng i.p., 6 mice at 0 h
Procedure: Groups of Balb/c mice (20-22 g) were administered i.p. with RN-peptide, or GMDP, or saline (control), and then infected i.p. with E. coli strain TG-1 cells. Two doses of E. coli cells were used—1×10^8 (LD50) and 2×10^8 (LD100). Mice were infected one day (experiment A) or seven days (experiment B) after injection of the immunomodulator. Survival of mice was assessed during three days. Results showing that RN-peptide protects mice from lethal doses of E. coli infections (Table 4).

[2] = Immunogenicity of the peptide: anti-peptide antibody titer by solid-phase ELISA; type: in vivo, Balb/c mice; settings: mice immunized once or twice in PBS, 1-100 μg i.p.
Procedure: Immunogenicity of the peptide. Groups of Balb/c mice (5 mice) were immunized with 1-100 μg RN-peptide in PBS i.p. twice with 10-day interval. The anti-peptide antibody titer was estimated in pooled sera by solid-phase ELISA using MaxiSorb plates (Nunc, Denmark) coated with RN-peptide (10 μg/ml). The anti-peptide antibody titer was compared with the titer of normal mouse serum. E6/1.2 mAb was used as a positive control.

[3] = tested on: E. coli strain K12; assay: Anti-infective action: survival of Balb/c mice infected with E. coli strain K12; type: in vivo; settings: 1 ng-10 μg i.p. 7 days before infection, LD100 and LD50
Procedure: Groups of Balb/c mice (20-22 g) were administered i.p. with different doses of RN-peptide (1 ng-10 μg) or GMDP (1 ng-10 μg) in saline. Control mice received saline. […] Survival of mice was assessed during three days.

[4] = Experiment A (infected one day after injection), 1 × 10^8 E. coli cells (LD50)
[5] = Experiment A (infected one day after injection), 2 × 10^8 E. coli cells (LD100)
[6] = Experiment B (infected seven days after injection), 1 × 10^8 E. coli cells (LD50)
[7] = Experiment B (infected seven days after injection), 2 × 10^8 E. coli cells (LD100)

CC[C@H](C)[C@H](NC(=O)[C@H](CCCCN)NC(=O)[C@H](C)NC(=O)[C@H](Cc1c[nH]cn1)NC(=O)[C@H](Cc1ccc(O)cc1)NC(=O)[C@H](CCCNC(=N)N)NC(=O)[C@@H]1CCCN1C(=O)[C@@H]1CCCN1C(=O)[C@@H](NC(=O)[C@@H](N)CCCNC(=N)N)C(C)C)C(=O)N[C@@H](CO)C(=O)N1CCC[C@H]1C(=O)N[C@@H](CCSC)C(=O)N[C@H](C(=O)N[C@@H](CC(N)=O)C(=O)O)C(C)C [RN-peptide, RVPPRYHAKISPMVN] (H-RVPPRYHAKISPMVN-OH)
Number of survivors [1, 4]: 5 | surviving mice, 24 hours after infection [1, 4]: 6 | surviving mice, 28 hours after infection [1, 4]: 5 | surviving mice, 72 hours after infection [1, 4]: 5 | Number of survivors [1, 5]: 2 | surviving mice, 24 hours after infection [1, 5]: 5 | surviving mice, 28 hours after infection [1, 5]: 5 | surviving mice, 72 hours after infection [1, 5]: 2 | Number of survivors [1, 6]: 4 | surviving mice, 24 hours after infection [1, 6]: 6 | surviving mice, 28 hours after infection [1, 6]: 5 | surviving mice, 72 hours after infection [1, 6]: 4 | Number of survivors [1, 7]: 1 | surviving mice, 24 hours after infection [1, 7]: 3 | surviving mice, 28 hours after infection [1, 7]: 3 | surviving mice, 72 hours after infection [1, 7]: 1 | anti-RN-peptide antibodies (humoral response to the peptide) [2]: did not reveal any anti-RN-peptide antibodies; also recorded: did not exceed the titer of native mice | protection from E. coli infection (in words) [3]: substantial protection; also recorded: substantial anti-infective mode of action
